A short description of assay [1]: Skin whitening effect when applied to UVB-tanned human skin. It is filed as in vivo. To be noted: 1% applied on upper arm after UVB, 10 weeks, 12 male subjects. As for the experimental part: First, opaque tapes having holes of 1.5 cm in diameter were attached on the upper arms of 12 healthy male subjects and UVB of about 1.5-2 times the minimal erythemal dose was irradiated to each subject to induce skin tanning. […] Then, the change was monitored for 10 weeks. The color of the skin was measured with 1-week interval using the CR2002 colorimeter (Minolta, Japan). The change in skin color (ΔL*) between the time when the test substance was applied and the time when the test was completed was calculated according to Equation 3. Skin whitening effect is evaluated by comparing the ΔL* of the part where the test substance was applied with that of the control part. A ΔL* value of about 2 can be interpreted as distinct skin whitening effect and one about 1.5 can be evaluated as positive skin whitening effect.
ΔL*=(L* when test was completed)−(L* when test substance was applied) [Equation 3]

In another assay the test system is MMP-9. Description: UV-induced MMP-9 expression in human keratinocytes (western blot). Conditions: HaCaT cells, 50 μM, UVB 30 mJ/cm^2, FIG. 6. It is filed as cell-based. As for the experimental part: Human keratinocyte HaCaT cells were cultured in substantially the same manner as in Test Example 10.
The cultured cells were treated with trypsin to obtain a single-cell suspension. Then, the cells were distributed in a 6-well plate, with 2×10^5 cells per well, and cultured for 24 hours. Subsequently, after replacing the medium with DMEM not containing fetal bovine serum and culturing again for 24 hours, the cells were treated with 50 μM syringaresinol dissolved in DMSO. After treating for 24 hours, the cells were washed with PBS and UVB of 30 mJ/cm^2 was irradiated in PBS. After discarding the PBS, the cells were added to a medium containing syringaresinol of the same concentration. As a control group, the cells were cultured in the same manner without treating with syringaresinol. […] Then, after centrifuging at 4° C. for 10 minutes with 15,000 g, the supernatant was recovered and protein was quantitated using Bio-Rad Protein Dye ReagentTM. […] Bands on the film were scanned with PowerLook 2100 XL (UMAX) and analyzed with the image-analyzing program ImageMaster 2D Elite (Amersham Bioscience).

Assay [2] in a line: Transepidermal water loss (TEWL) in hairless mouse. To be noted: 3 weeks, FIG. 8. Format: in vivo, hairless mice (SKH: HR-1). The method, then: 30-week-old female hairless mice (SKH: HR-1) weighing 25-39 g were purchased from Charles River Laboratories (Wilmington, Mass., USA). The mice were accustomed to the laboratory environment for a week and then grouped into normal groups and test substance-treated groups, with 5 mice per each group. The mice were allowed free access to water and feed under the condition of 12-hour light/dark cycles, 23.2° C. and 55.10% humidity. For the test substance-treated groups, a patch of 1% syringaresinol dissolved in a solvent (1,3-butylene glycol:ethanol=7:3) was applied 2 times for 2 days or 200 mg/kg syringaresinol was orally administered. The control groups were treated in the same way using the solvent of the same amount instead of syringaresinol. […] Before and after the UV radiation, skin wrinkles on the exposed part were taken with replica and measured using the Visiometer system (C+K). 3 weeks after the onset of experiment, transepidermal water loss (TEWL) was measured on the back part of the hairless mouse of each group using a wireless vapometer (Delfin Technologies, Ltd., SWL 4102). […] Transepidermal water loss is the quantity of water that passes from inside the body through the skin and a larger value means poor skin moisturization ability and damaged skin barrier function. […]

Assay [3] can be described thus: Skin wrinkle formation after UVB in hairless mouse. To be noted: UVB 180 mJ/cm^2. Format: in vivo, hairless mice (SKH: HR-1). As for the experimental part: 30-week-old female hairless mice (SKH: HR-1) weighing 25-39 g were purchased from Charles River Laboratories (Wilmington, Mass., USA). The mice were accustomed to the laboratory environment for a week and then grouped into normal groups and test substance-treated groups, with 5 mice per each group. The mice were allowed free access to water and feed under the condition of 12-hour light/dark cycles, 23.2° C. and 55.10% humidity.
For the test substance-treated groups, a patch of 1% syringaresinol dissolved in a solvent (1,3-butylene glycol:ethanol=7:3) was applied 2 times for 2 days or 200 mg/kg syringaresinol was orally administered. The control groups were treated in the same way using the solvent of the same amount instead of syringaresinol. The syringaresinol-applied group, syringaresinol oral administration group and control groups were exposed to UVB of 180 mJ/cm^2. Before and after the UV radiation, skin wrinkles on the exposed part were taken with replica and measured using the Visiometer system (C+K).
Change (%)=[(Tdi−Tdo)/(Tdo)]×100 [Equation 4]
Tdi: value measured after UV radiation
Tdo: value measured before UV radiation

Data on 1 compound can be found in patent publication US20150290105A1, “COMPOSITION COMPRISING SYRINGARESINOL FOR IMPROVING THE SKIN” (AMOREPACIFIC CORPORATION, priority 2011, published 2015).

The structures appear in SMILES notation.

Consider `COc1cc(C2OCC3C(c4cc(OC)c(O)c(OC)c4)OCC23)cc(OC)c1O` (stereo not drawn) [Syringaresinol, syringaresinol], for which the “Change in skin brightness (ΔL*)” value in assay [1] was found to be 1.98 ± 0.11. Further, the “UV-induced MMP-9 expression” value in the assay with MMP-9 is “inhibiting the UV-induced increase of MMP-9 expression”. Moreover, the “UV-induced transepidermal water loss (TEWL)” value in assay [2] (application) and in assay [2] (oral administration) was “decrease in UV-induced transepidermal water loss” throughout. The “Increase of skin wrinkles (Change %)” value in assay [3] (application of 1% patch, control 230±35%) was determined as 121±35%; in assay [3] (oral administration 200 mg/kg, control 224±45%) it was 123±25%.
